Experimental data published in a melting point compilation (Tetko et al.; mined from patent text by program, amines drawn as free bases though some values may be those of a salt).

Row | Structure (SMILES) | melting point [°C]
1 | CCCCCCCCCCCCCCCCCCOc1cc(C(=O)N(CC(=O)O)CC(=O)O)cc([N+](=O)[O-])c1 | 110 to 112
2 | O=C(NCc1ccncc1)c1cc2ccnc(Cl)c2[nH]1 | > 340
3 | O=C(Nc1ccc(-n2nc(C(F)(F)F)cc2C(F)(F)F)cc1)c1ccc(I)cc1 | 196 to 198
4 | O=C1C(=Cn2ccnc2)c2ccccc2N1c1ccccc1 | 158 to 161
5 | Fc1cccc(Cl)c1CSc1nc2cnccc2[nH]1 | 224 to 226
6 | COC(=O)[C@]1(O)Cc2c(OC)ccc(OC)c2C2(C1)SCCS2 | 115 to 117
7 | COc1cc(Cc2cnc(N)nc2N)c2cc(C)oc2c1OC | 209 to 212
8 | CCN(CC)c1cccc2nc3n(c12)CC(N)CCN3c1ccc(Cl)cc1Cl (stereo unspecified) | 149 to 151
9 | COC(=O)CC(=O)C[C@H]1NC(=O)[C@@H]1N1C(=O)c2ccccc2C1=O | 116 to 120
10 | O=C(O)c1cc(OCCCCCCc2cccc(OCc3ccccc3)c2OCc2ccccc2)ccc1O | 97 to 100
11 | C[Si](C)(C)c1ccc(-c2nccc3ccccc23)cc1 | 93.5
12 | CCNC(=O)Cc1cccc([N+](=O)[O-])c1 | 115 to 117
13 | CS(=O)(=O)Nc1ccc(NC(=O)C(=O)N2CCC(Cc3ccccc3)CC2)cc1 | 221 to 225
14 | Cc1onc(-c2ccccc2)c1COc1ccc(-c2cc(O)c(SCCc3ccccc3)c(=O)o2)cc1 | 126 to 128
15 | O=C(O)Cn1c(Cc2ccccc2)ccc(NC(=O)CCCc2ccccc2)c1=O | 159 to 161
16 | CCc1ccc(Cc2cc(C(=O)OC)ccc2O)cc1 | 134 to 137
17 | O=[N+]([O-])c1ccccc1Nc1ccccc1O | 67 to 70
18 | CC(C)(C)OC(=O)NCCc1ccc(OCCC2Oc3cc([N+](=O)[O-])ccc3N(Cc3cccc(Cl)c3)C2=O)cc1 (stereo unspecified) | 82 to 85
19 | CC(=S)NC(C(=O)NCc1ccccc1)c1ccco1 (stereo unspecified) | 78 to 80
20 | CCOCCOc1c(C)cc(Oc2ccc3c(c2)C=C(C(=O)Nc2ccc(CN(C)C4CCOCC4)cc2)CCS3(=O)=O)cc1C | 111 to 113
21 | O=C(CN1C(=O)c2ccccc2C1=O)NNC(=O)c1ncn2c1[C@@H]1CCN1C(=O)c1sccc1-2 | > 260
22 | CC1(C)OC(=S)Nc2ccc(-c3ccc(C#N)s3)cc21 | 242 to 244

Row | Structure (SMILES) | melting point [°C]
23 | O=C(O)Cc1ccc2c(c1)Cc1ccccc1CC2=O | 178 to 181
24 | CSCCOc1ccc(-c2ccc3c(c2)C=C(C(=O)Nc2ccc(CN(C)C4CCOCC4)cc2)CCS3(=O)=O)cc1 | 222 to 224
25 | CC1=Cc2cc(-c3nnn[nH]3)ccc2OC1(C)C | 179 to 181
26 | CC(C)C1(C(=O)O)CCCCC1 | 102
27 | Cc1cc(SC#N)c(C(C)C)cc1O | 72 to 75
28 | CCCn1nc(C(C)C)c(C(=O)O)c1Cc1ccc(-c2ccccc2NS(=O)(=O)C(F)(F)F)cc1 | 75 to 78
29 | CCOC(=O)CNc1nc2cccccc-2c1C#N | 186 to 188
30 | CCOC(=O)Cc1nc(-c2ccc(Cl)cc2)oc1Sc1ccccc1 | 109 to 110
31 | N#CC1c2ccccc2-c2ccccc21 | 152 to 154
32 | Cc1nc(C(C)O)c2n1-c1ccc(Cl)cc1C(c1ccccc1Cl)=NC2 (stereo unspecified) | 197 to 199
33 | OCc1cc(N2CCCCC2)ncn1 | 70 to 72
34 | CCOc1ccc(-n2c(NCc3ccc(Cl)cc3)nc3ccc(Cl)cc32)cc1 | 135 to 136
35 | Oc1ccccc1Nc1nccc(-c2cccnc2)n1 | 166 to 169
36 | N#Cc1ccccc1-c1ccc(CCl)cn1 | 97 to 98
37 | CCc1nn(Cc2cccnn2)c(C(N)=O)c1NC(=O)c1cc(S(C)(=O)=O)ccc1OCC(C)C | 196 to 200
38 | CC(C)Oc1nc2cc([N+](=O)[O-])c(-n3ccc(=O)cc3)cc2[nH]c1=NC#N | > 300
39 | CCn1c2ccccc2c2cc(Nc3nccc(-c4ccc(N5CCNCC5)nc4)n3)ccc21 | 131 to 137
40 | CCC(Oc1cc(Cl)cc(Cl)c1)C(=O)NC(C)(C)C#CCOC (stereo unspecified) | 103 to 104
41 | N#CCC1CCN(C(c2ccccc2)c2ccccc2)CC1 | 103 to 104
42 | CC(C)CCNc1ccccc1NCC12CC3CC(CC(C3)C1)C2 | 64 to 65
43 | CNC(=O)c1ccc(N(CC(=O)OC(C)(C)C)C(=O)OC(C)(C)C)cc1 | 164 to 166
44 | CC(C)c1ccc(C2(OC(=O)N(C)C)C(=O)c3ccccc3C2=O)c(OC(=O)N(C)C)c1 | 203 to 205

Row | Structure (SMILES) | melting point [°C]
45 | C=C(CC(Cl)(Cl)Cl)c1nc(Cl)ccc1Cl | 71 to 74
46 | CNC(=O)Cn1nc(-c2ccc(OC)cc2)cc(C(=O)NC)c1=O | 250 to 251
47 | Nc1cc(C(F)(F)F)nc(C(F)(F)F)c1 | 147 to 149
48 | Cc1cc(C)c(-c2cn(C)c3nc(N)n(C)c(=O)c23)c(C)c1 | 229 to 231
49 | COC1C(N(C)S(C)(=O)=O)c2cc(OCc3ccccc3)ccc2OC1(C)C (stereo unspecified) | 119 to 121
50 | COc1ccc(C2NC(C(=O)O)C(C)(C)S2)c(C(=O)O)c1OC (stereo unspecified) | 90 to 91
51 | Cc1nc(-c2cccc(C(=O)N[C@H]3CC[C@H](CCN4CCN(c5nccc6c5CCO6)CC4)CC3)c2)no1 | 218
52 | O=C(O)c1cn(-c2ccnc3ccccc23)c2ccc(F)cc12 | 148
53 | CCCCC(F)c1cc(=O)[nH]cn1 (stereo unspecified) | 148
54 | COC(=O)c1cc([N+](=O)[O-])c(Cl)c([N+](=O)[O-])c1 | 104 to 106
55 | O=C(O)c1cc2ccc(C3OC(CO)C(O)C(O)C3O)cc2oc1=O (stereo unspecified) | 250 to 255
56 | CCOC(=O)Cn1c(=O)[nH]c2ccc(Cl)cc2c1=O | 214 to 215
57 | N#Cc1cc2c(c(C(=O)O)c1)OC(c1ccccc1)(c1ccccc1)O2 | 221
58 | Cc1ccc(Oc2ccc(-c3cccs3)cc2O)c(O)c1 | 91 to 92
59 | CCOC(=O)C1=C(C)Nc2ccnc(OC(C)C)c2C1c1cccc(C(F)(F)F)c1Cl (stereo unspecified) | 173 to 175
60 | Cc1nnc2n1-c1ccc(C#CCN3C(=O)CN(C)C(=O)c4ccccc43)cc1C(c1ccccc1F)=NC2 | 179 to 182
61 | O=C(O)c1c(Cl)ccc2cc(C(F)(F)F)cnc12 | 250
62 | CCC(O)c1cc2ccccc2cc1CO (stereo unspecified) | 70
63 | COc1ccc(N2CCOCC2)c2sc(NC(=O)N3CC4CC[C@@](C)(C3)C4(C)C)nc12 | 185 to 189
64 | COC(=O)c1cc(NS(C)(=O)=O)ccc1F | 135 to 137
65 | CCCNC(=O)Nc1ccc(N(C)C)cc1C(=O)NCC1CCN(C(c2ccccc2)c2ccccc2)CC1 | 199 to 201
66 | NCC1Cc2cc(Cl)c3[nH]c(=O)ccc3c2O1 (stereo unspecified) | > 300
